From patent US8809352B2, “Sulfonamides as inhibitors of Bcl-2 family proteins for the treatments of cancer” (Novartis AG, priority 2009, dated 2014)
pIC50: −log10 of the molar value.

Molecular target: BCL2 (Homo sapiens, UniProt P10415)
Assay: Biacore SPR solution inhibition assay of BCL-2 binding to peptide derivatized sensor surfaces
Details: SPR competition; 56 nM BCL2 pre-equilibrated with compound one hour; biotinylated BAK, BAD and NOXA peptide surfaces; 25° C.
Text: The present method includes utility of a Surface plasmon resonance (SPR)-based biosensor (Biacore™ GE Healthcare, Uppsala, Sweden) to characterize BCL-2 inhibitors.
Biacore™ utilizes the phenomenon of surface plasmon resonance (SPR) to detect and measure binding interactions. In a typical Biacore experiment, one of the interacting molecules (ligand) is immobilized on a flexible dextran matrix while the interacting partner (analyte) is allowed to flow across that surface. A binding interaction results in an increase in mass on the sensor surface and a corresponding direct change in the refractive index of the medium in the vicinity of the sensor surface. Changes in refractive index or signal are recorded in resonance units (R.U.) Signal changes due to association and dissociation of complexes are monitored in a non-invasive manner, continuously and in real-time, the results of which are reported in the form of a sensorgram. The SPR assay is configured to examine solution inhibition of BCL-2 binding to peptide derivatized sensor surfaces to generate […] values as a measure of inhibitor potency.
Biacore™ A100 (GE Healthcare, Uppsala, Sweden) was used to conduct all experiments reported herein. Sensor surface preparation and all interaction analyses experiments were performed at 25° C. Reagents were purchased from GE Healthcare. Running buffer containing 10 mM Hepes, pH7.4, 150 mM sodium chloride, 1.25 mM Dithiothreitol, 3% Dimethyl sulfoxide and 0.05% polysorbate 20 were utilized throughout all analyses.
Biotinylated BAK, BAD and NOXA peptides were diluted to 10 nM in running buffer and captured onto a sensor surface pre-derivatized with streptavidin (sensor chip SA) to peptide surface densities in the range 50-100 R.U. Peptide captured surfaces were blocked with 500 μM PEO2-Biotin.
Interaction analyses were performed by first equilibrating each sample within a 6 point three fold compound dilution series in the range 16 μM to 0.004 nM with 56 nM BCL2 for one hour during instrument start-up procedures. Protein compound mixtures were then injected over each peptide surface in parallel for 60 seconds at a flow-rate of 30 μL/min. 56 nM BCL2 control samples were also prepared and run at regular intervals during the assay. Surface regeneration was performed at the end of each analysis cycle by two 30 second injections of 10 mM Glycine, pH 2.5, 1M Sodium Chloride, 0.05% polysorbate 20. Samples and control compound samples were run in duplicate and controls are also run at regular intervals during the assay to monitor surface and assay performance.
Data analyses are carried out using Biacore™ A100 evaluation software v1.1 to validate assay quality. Binding level report points were used relative to BCL2 control samples to calculate % inhibition values for each compound protein mixture.

BCL2, sequence (P10415 whole entry): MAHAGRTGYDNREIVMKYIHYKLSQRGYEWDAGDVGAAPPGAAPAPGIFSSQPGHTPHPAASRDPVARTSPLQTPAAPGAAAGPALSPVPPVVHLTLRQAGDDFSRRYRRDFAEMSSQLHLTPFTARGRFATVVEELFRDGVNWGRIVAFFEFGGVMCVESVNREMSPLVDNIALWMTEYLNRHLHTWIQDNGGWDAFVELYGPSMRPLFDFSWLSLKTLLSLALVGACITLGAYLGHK

| SMILES | pIC50 |
| --- | --- |
| [2H]C1(N2CCc3c(ncnc3NS(=O)(=O)c3ccc(N[C@H](CCN4CCOCC4)CSc4ccccc4)c(S(=O)(=O)C(F)(F)F)c3)C2)CCN(C(C)C2=C(c3ccc(Cl)cc3)CC(C)(C)CC2)CC1 (stereo partly drawn) [Example 90, N-(7-(1-(1-(2-(4-chlorophenyl)-4,4-dimethylcyclohex-1-enyl)ethyl) 4-deuteropiperidin-4-yl)-5,6,7,8-tetrahydropyrido[3,4-d]pyrimidin-4-yl)-4-((R)-4-D-morpholino-1-(phenylthio)butan-2-ylamino)-3-(trifluoromethylsulfonyl)benzenesulfonamide] | 6.83 |
| [2H]C1(N2CCc3c(nc(N(C)C)nc3NS(=O)(=O)c3ccc(N[C@H](CCN4CCN(C)CC4)CSc4ccccc4F)c(S(=O)(=O)C(F)(F)F)c3)C2)CCN(CC2=C(c3ccc(Cl)cc3)CC(C)(C)CC2)CC1 [Example 75, (R)-N-(7-(1-((2-(4-chlorophenyl)-4,4-dimethylcyclohex-1-enyl)methyl)-4-deuteropiperidin-4-yl)-2-(dimethylamino)-5,6,7,8-tetrahydropyrido[3,4-d]pyrimidin-4-yl)-4-(1-(2-fluorophenylthio)-4-(4-methylpiperazin-1-yl)butan-2-ylamino)-3-(trifluoromethylsulfonyl)benzenesulfonamide] | 7.18 |
| CN(C)CC[C@H](CSc1cccc(Cl)c1)Nc1ccc(S(=O)(=O)Nc2ncnc3c2CCN(C2CCN(Cc4ccccc4-c4ccc(F)cc4)CC2)C3)cc1S(=O)(=O)C(F)(F)F [Example 57, N-{7-[1-(4′-Fluoro-biphenyl-2-ylmethyl)-piperidin-4-yl]-5,6,7,8-tetrahydro-pyrido[3,4-d]pyrimidin-4-yl}-4-[(R)-1-(3-chloro-phenylsulfanylmethyl)-3-dimethylamino-propylamino]-3-trifluoromethanesulfonyl-benzenesulfonamide] | 7.00 |
| CC1Cc2c(ncnc2NS(=O)(=O)c2ccc(N[C@H](CCN(C)C)CSc3ccccc3)c(S(=O)(=O)C(F)(F)F)c2)CN1C1CCN(Cc2ccccc2-c2ccc(Cl)cc2)CC1 (stereo in doubt) [Example 48, N—[(S)-7-[1-(4′-Chloro-biphenyl-2-ylmethyl)-piperidin-4-yl]-6-methyl-5,6,7,8-tetrahydro-pyrido[3,4-d]pyrimidin-4-yl]-4-((R)-3-dimethylamino-1-phenylsulfanylmethyl-propylamino)-3 trifluoromethanesulfonyl-benzene sulfonamide] | 6.45 |
| [2H]C1(N2CCc3c(ncnc3NS(=O)(=O)c3ccc(N[C@H](CCN(C)C)CSc4ccccc4)c(S(=O)(=O)C(F)(F)F)c3)C2)CCN(Cc2cc(F)ccc2-c2ccc(Cl)cc2)CC1 [Example 73, (R)-N-(7-(1-((4′-chloro-4-fluorobiphenyl-2-yl)methyl)-4-deuteropiperidin-4-yl)-5,6,7,8-tetrahydropyrido[3,4-d]pyrimidin-4-yl)-4-(4-(dimethylamino)-1-(phenylthio)butan-2-ylamino)-3-(trifluoromethylsulfonyl)benzene sulfonamide] | 7.59 |
| CN(C)CC[C@H](CSc1ccccc1)Nc1ccc(S(=O)(=O)Nc2nc(C(F)(F)F)nc3c2CCN(C2CCN(Cc4ccccc4-c4ccc(Cl)cc4)CC2)C3)cc1[N+](=O)[O-] [Example 71, (R)-N-(7-(1-((4′-chlorobiphenyl-2-yl)methyl)piperidin-4-yl)-2-(trifluoromethyl)-5,6,7,8-tetrahydropyrido[3,4-d]pyrimidin-4-yl)-4-(4-(dimethylamino)-1-(phenylthio)butan-2-ylamino)-3-nitrobenzenesulfonamide] | 7.70 |
| C[C@H](CSc1ccccc1)Nc1ccc(S(=O)(=O)Nc2ncnc3c2CCN(C2CCN(CC4=C(c5ccc(Cl)cc5)CC(C)(C)CC4)CC2)C3)cc1S(=O)(=O)C(F)(F)F [Example 45, N-(7-(1-((2-(4-chlorophenyl)-4,4-dimethylcyclohex-1-enyl)methyl)piperidin-4-yl)-5,6,7,8-tetrahydropyrido[3,4-d]pyrimidin-4-yl)-4-(1-(phenylthio)propan-2-ylamino)-3-(trifluoromethylsulfonyl)benzenesulfonamide] | 6.44 |
| O=S(=O)(Nc1ncnc2c1CCN(C1CCN(Cc3ccccc3-c3ccc(Cl)cc3)CC1F)C2)c1ccc(N[C@H](CCN2CCOCC2)CSc2ccccc2)c(S(=O)(=O)C(F)(F)F)c1 (stereo partly drawn) [Example 65, N-(7-(1((4′-Chlorobiphenyl-2-yl)methyl)-3-fluoropiperidin-4-yl)-5,6,7,8-tetrahydropyrido[3,4-d]pyrimidin-4-yl)-4-((R)-4-morpholino-1-(phenylthio)butan-2-ylamino)-3-(trifluoromethylsulfonyl)benzenesulfonamide] | 6.74 |
| CN(C)CC[C@H](CSc1ccccc1)Nc1ccc(S(=O)(=O)Nc2ncnc3c2CCN(C2CCN(Cc4ccccc4Br)CC2)C3)cc1S(=O)(=O)C(F)(F)F [Example 7, (R)-N-(7-(1-(2-bromobenzyl)piperidin-4-yl)-5,6,7,8-tetrahydropyrido[3,4-d]pyrimidin-4-yl)-4-(4-(dimethylamino)-1-(phenylthio)butan-2-ylamino)-3-(trifluoromethylsulfonyl)benzenesulfonamide] | 6.30 |
| CCC[C@H](CSc1ccccc1)Nc1ccc(S(=O)(=O)Nc2ncnc3c2CCN(C2CCN(CC4=C(c5ccc(Cl)cc5)CC(C)(C)CC4)CC2)C3)cc1S(=O)(=O)C(F)(F)F [Example 59, N-(7-(1-((2-(4-chlorophenyl)-4,4-dimethylcyclohex-1-enyl)methyl)piperidin-4-yl)-5,6,7,8-tetrahydropyrido[3,4-d]pyrimidin-4-yl)-4-(1-(phenylthio)pentan-2-ylamino)-3-(trifluoromethylsulfonyl)benzenesulfonamide] | 6.24 |

The next lines start with the values.

| pIC50 | SMILES |
| --- | --- |
| 7.12 | CN(C)C(=O)C[C@H](CSc1ccccc1)Nc1ccc(S(=O)(=O)Nc2ncnc3c2CCN(C2CCN(Cc4ccccc4-c4ccc(Cl)cc4)CC2)C3)cc1[N+](=O)[O-] [Example 22, (R)-3-(4-(N-(7-(1-((4′-chlorobiphenyl-2-yl)methyl)piperidin-4-yl)-5,6,7,8-tetrahydropyrido[3,4-d]pyrimidin-4-yl)sulfamoyl)-2-nitrophenylamino)-N,N-dimethyl-4-(phenylthio)butanamide] |
| 5.88 | O=S(=O)(Nc1ncnc2c1CCN(C1CCN(Cc3ccccc3-c3ccc(Cl)cc3)CC1)C2)c1ccc(NCCSc2ccccc2)c(S(=O)(=O)C(F)(F)F)c1 [Example 52] |
| 7.70 | CN(C)CC[C@H](CSc1ccccc1)Nc1ccc(S(=O)(=O)Nc2ncnc3c2CCN(C2CCN(Cc4ccccc4-c4ccc(Cl)cc4)CC2)C3)cc1S(=O)(=O)C(F)(F)F [Example 11, (R)-N-(7-(1((4′-chlorobiphenyl-2-yl)methyl)piperidin-4-yl)-5,6,7,8-tetrahydropyrido[3,4-d]pyrimidin-4-yl)-4-(4-(dimethylamino)-1-(phenylthio)butan-2-ylamino)-3-(trifluoromethylsulfonyl)benzenesulfonamide] |
| 7.06 | CN(C)CC[C@H](CSc1ccccc1Cl)Nc1ccc(S(=O)(=O)Nc2nc(C(F)(F)F)nc3c2CCN(C2CCN(CC4=C(c5ccc(Cl)cc5)CC(C)(C)CC4)CC2)C3)cc1S(=O)(=O)C(F)(F)F [Example 32, (R)-N-(7-(1-((2-(4-chlorophenyl)-4,4-dimethylcyclohex-1-enyl)methyl)piperidin-4-yl)-2-(trifluoromethyl)-5,6,7,8-tetrahydropyrido[3,4-d]pyrimidin-4-yl)-4-(1-(2-chlorophenylthio)-4-(dimethylamino)butan-2-ylamino)-3-(trifluoromethylsulfonyl)benzenesulfonamide] |
